Read-outs that look alike come from different tables or passages of the source.
Key:
[1] = MTT assay, combined treatment with UVB irradiation; assay type: cell-based, human; settings: human, HaCaT cells, HaCaT, read-out: Cell viability
Summary of the method: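 HaCaT cells in PBS irradiated with 200 J/m^2 UVB, then returned to DMEM and treated with test compounds for 24 h. Viability by MTT (2 mg/ml, 4 h), formazan dissolved in DMSO and read at 540 nm.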

[2] = MTT assay, cytotoxicity in human skin cancer cell line; assay type: cell-based; settings: human, Cell viability
Summary of the method: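 A431 cells were seeded in serum-free medium and, about 3 h later, treated 24 h with phytosphingosine derivatives at final 1–100 μM (DMSO vehicle). MTT (2 mg/ml) was then added for 4 h, and the formazan was dissolved in DMSO and read at 540 nm for viability. C2-ceramide served as comparator.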

[3] = MTT assay, cytotoxicity in human keratinocyte cell line; assay type: cell-based; settings: human, Cell viability
Summary of the method: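 HaCaT keratinocytes, 1-2×10^4 cells per well in serum-free medium, treated 24 h with phytosphingosine derivatives (1-100 μM, DMSO vehicle). Viability by MTT (2 mg/ml, 4 h), formazan dissolved in DMSO, O.D. read at 540 nm.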

Chk1 = assay: Immunoblot analysis of Chk1; assay type: cell-based, human; settings: 30 μM, FIGS. 12 and 13
Protocol: In the confirmation of apoptosis-related proteins, the immunoblot analysis is performed in order to look into the effects of the compositions of the present invention on the expression of caspase-3, p53, and Chk1 proteins related to the induction of apoptosis. HaCaT cells are cultured on a 100-mm dish and collected at the indicative time. The proteins are extracted by adding 500 μl of RIPA lysis buffer (1% Nonidet P-40, 1% sodium deoxycholate, 0.1% SDS, […], 0.01 M sodium phosphate, pH 7.2, 2 mM EDTA, 50 mM sodium fluoride and 0.2 mM sodium vanadate), and the concentration is measured by using the Bradford method. 1 Extracted proteins is electrophoresed on 12% polyacrylamide gel, and they are transferred to the nitrocellulose membrane. The membrane blocked with 5% non-fat milk is reacted with the primary antibodies (caspase-3, p53, and Chk1), washed, and reacted with the secondary HRP-conjugated antibody. The intensity of proteins is analyzed by using the ECL kit.

apoptosis-related genes = assay: Apoptosis array kit, gene expression; assay type: cell-based; settings: 30 μM, 24 hours, FIG. 10
Protocol: Firstly, in order to look into the genes involved in apoptosis induced by the compositions of the present invention, TAPS is treated at the dose of 30 μM for 24 hours, from which mRNA is isolated. Then it is observed by using an apoptosis array kit.
The labeled cDNA is synthesized by using apoptosis-specific primers offered by Human Apoptosis Expression Assay (R&D System, Minneapolis, Minn.), which is used for a probe in incubation with 2 μg of the total RNA at 65° C. overnight. It is then washed with Washing Solution I (0.5×SSPE, 1% (w/v) SDA) three times at a room temperature and with Washing Solution II ([…]) for 1 hour at 65° C. The washed membranes are exposed to X-ray films at […], and developed.

[4] = test system: peripheral blood mononuclear cells (PBMC); assay: MTT assay, cytotoxicity in peripheral blood mononuclear cells; assay type: cell-based, human; settings: FIG. 3
Protocol: The effects of the composition of the present invention on the cytotoxicity in immune cells (T cells, B cells, macrophages, monocytes, etc.) obtained from human blood were examined. The blood was obtained from healthy volunteers and PBMC from the blood by mechanical aggregation method. And mononuclear cells containing T cells, B cells, macrophages and monocytes were isolated from single cells by density gradient centrifugation method using Ficoll Hypaque. Briefly, single cells were treated with PBS and overlayed on Ficoll Hypaque and centrifuged at 1500 rpm for 30 min. After centrifugation, the cells around the boundary of the Ficoll-Hapaque were collected and washed three times with PBS. […] And RPMI with 10% of serum was used as a medium. The isolated cells were cultured for 24 hours in the presence of 1, 10, 50 and 100 μM of NAPS, TAPS, and PS to examine the effect of cytotoxicity, i.e. the degree of proliferation of the cells. C2-ceramide was used as control.

With `CCCCCCCCCCCCCC[C@@H](O)[C@@H](O)[C@H](CO)NC(C)=O` [NAPS, N-acetyl phytosphingosine] the viability at 24 h, 1 µM ([1]; 1 μM + UVB 200 J/m^2, 24 hours) was 27 ± 5.8%, the viability at 24 h, 1 µM ([1]; 1 μM, no UVB, 24 hours) was 130 ± 10% and the viability at 24 h, 3 µM ([1]; 3 μM + UVB 200 J/m^2, 24 hours) was 17 ± 1.6%. It also gave a viability at 24 h, 3 µM ([1]; 3 μM, no UVB, 24 hours) of 117 ± 9.7%, a viability at 24 h, 5 µM ([1]; 5 μM + UVB 200 J/m^2, 24 hours) of 11 ± 1.3% and a viability at 24 h, 5 µM ([1]; 5 μM, no UVB, 24 hours) of 110 ± 14%. The viability at 24 h, 10 µM ([1]; 10 μM + UVB 200 J/m^2, 24 hours) was 1 ± 0.1%, the viability at 24 h, 10 µM ([1]; 10 μM, no UVB, 24 hours) was 67 ± 12% and the viability at 24 h, 3 µM [2] was 100 ± 10.2%. It also gave a viability at 24 h, 10 µM [2] of 75 ± 6.9%, a viability at 24 h, 30 µM [2] of 31 ± 10% and a viability at 24 h, 50 µM [2] of 1 ± 0.2%. It also gave a viability at 24 h, 1 µM [3] of 103 ± 6.9%, a viability at 24 h, 3 µM [3] of 99 ± 3.5% and a viability at 24 h, 10 µM [3] of 86 ± 2.1%. For the same molecule, the viability at 24 h, 30 µM [3] was 17 ± 0.8%.
In the case of tetraacetyl phytosphingosine [TAPS], the Chk1 protein (Chk1; at 8-hour) is reported as “not changed greatly”, the Chk1 protein (Chk1; at 24 hour) is reported as “rapid reduction” and the “expression of Bcl-10” value (apoptosis-related genes) is reported as “increased”. For the same molecule, the “expression of COX-2 gene” value (apoptosis-related genes) was “increased”, the “expression of IL-1β” value (apoptosis-related genes) was “increased” and the “expression of Mcl-1” value (apoptosis-related genes) was “increased”. The “expression of PIN gene” value (apoptosis-related genes) was “increased”, the “expression of p21” value (apoptosis-related genes) was “increased” and the “expression of p53 gene” value (apoptosis-related genes) was “decreased”. For the same molecule, the expression of survivin (apoptosis-related genes) was “reduced”, the “concentration that shows the strong cytotoxicity” value ([4]; human PBMC) was 50 µM and the “cytotoxicity to PBMC” value ([4]; up to 100 μM, 24 hours) was “strong cytotoxicity”.
